Results reported in patent US7345049B2, “Phenylalanine derivatives” (Ajinomoto Co., Inc., priority 2003, dated 2008).

How the values were obtained:
[1] = Pharmacokinetic study by intravenous administration to a rat; assay type: in vivo; details: plasma, 1 mg/kg; intravenous single dose, 1 mg/mL solution at 1 mL/kg, Wistar rat, active form; read-out: Total body clearance CLtot (converted)
Protocol: Pharmacokinetic Study by Intravenous Administration to a Rat
After the compounds of the present invention wherein R11 to R141 are a hydroxyl group, which were active forms, were weighed by a scale, they were adjusted by dimethylsulfoxide to become 10 mg/mL. Polyethylene glycol 400 and distilled water were added thereto to prepare 1 mg/mL of an administration solution. 1 mg/mL of the administration solution was intravenously administered as a single dose to a Wistar rat in an amount of 1 mL/kg. 1, 5, 10, 30, 60 and 180 minutes later, the drug concentration in the blood plasma obtained by blood drawing from its cervical vein over time under anesthesia was determined with LC/MS. From the obtained results, the area under the plasma concentration time curve from zero to time infinity (AUCinf (iv)) was calculated in accordance with the trapezoidal method of pharmacokinetic analysis. The total body clearance (CLtot, [L/hr/kg]) was calculated as an index of drug disappearance in the blood plasma from a dose [mg/kg] and AUC [μg×hr/mL] in accordance with the formula: CLtot=Dose÷AUCinf(iv).

[2] = target: T1, VCAM-1/α4β1 integrin binding (Homo sapiens, UniProt P05556+P13612); assay: Assay of antagonistic activity to VCAM-1/α4β1 integrin binding under the existence of blood serum (Jurkat cell adhesion to VCAM-1/Fc); assay type: cell-based; details: Jurkat cells, recombinant human VCAM-1/Fc, 50% human blood serum
T1 construct: Jurkat (ATCC TIB-152), known to express integrin α4β1; endogenous in cells; host or cells: Jurkat (ATCC TIB-152)
T1 sequence (P13612 34-1032): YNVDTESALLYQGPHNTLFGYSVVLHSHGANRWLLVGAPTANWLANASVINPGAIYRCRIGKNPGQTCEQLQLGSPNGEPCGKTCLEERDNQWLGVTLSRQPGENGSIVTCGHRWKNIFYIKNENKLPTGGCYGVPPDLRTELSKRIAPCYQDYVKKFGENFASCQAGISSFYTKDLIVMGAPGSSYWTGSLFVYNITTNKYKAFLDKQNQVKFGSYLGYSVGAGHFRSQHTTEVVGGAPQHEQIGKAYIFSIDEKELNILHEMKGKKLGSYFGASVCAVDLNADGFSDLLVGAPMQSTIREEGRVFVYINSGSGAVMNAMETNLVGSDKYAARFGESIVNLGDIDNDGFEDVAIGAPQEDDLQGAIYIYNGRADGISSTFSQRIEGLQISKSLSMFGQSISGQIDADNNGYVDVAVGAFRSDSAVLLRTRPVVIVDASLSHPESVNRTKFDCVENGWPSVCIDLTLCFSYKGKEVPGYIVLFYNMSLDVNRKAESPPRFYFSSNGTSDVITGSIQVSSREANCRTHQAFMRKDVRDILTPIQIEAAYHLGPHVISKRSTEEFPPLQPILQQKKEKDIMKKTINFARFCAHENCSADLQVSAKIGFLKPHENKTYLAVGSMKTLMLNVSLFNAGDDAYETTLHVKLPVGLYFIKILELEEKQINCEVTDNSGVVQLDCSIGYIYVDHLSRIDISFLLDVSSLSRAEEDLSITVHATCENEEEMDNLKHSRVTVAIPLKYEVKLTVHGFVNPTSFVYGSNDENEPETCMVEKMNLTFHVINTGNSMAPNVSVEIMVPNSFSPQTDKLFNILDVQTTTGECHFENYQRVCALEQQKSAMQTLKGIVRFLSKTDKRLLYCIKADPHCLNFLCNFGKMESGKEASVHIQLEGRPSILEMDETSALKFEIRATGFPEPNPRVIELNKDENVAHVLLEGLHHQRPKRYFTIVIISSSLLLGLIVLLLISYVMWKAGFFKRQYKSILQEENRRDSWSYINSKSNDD
T1 sequence (P05556 21-798): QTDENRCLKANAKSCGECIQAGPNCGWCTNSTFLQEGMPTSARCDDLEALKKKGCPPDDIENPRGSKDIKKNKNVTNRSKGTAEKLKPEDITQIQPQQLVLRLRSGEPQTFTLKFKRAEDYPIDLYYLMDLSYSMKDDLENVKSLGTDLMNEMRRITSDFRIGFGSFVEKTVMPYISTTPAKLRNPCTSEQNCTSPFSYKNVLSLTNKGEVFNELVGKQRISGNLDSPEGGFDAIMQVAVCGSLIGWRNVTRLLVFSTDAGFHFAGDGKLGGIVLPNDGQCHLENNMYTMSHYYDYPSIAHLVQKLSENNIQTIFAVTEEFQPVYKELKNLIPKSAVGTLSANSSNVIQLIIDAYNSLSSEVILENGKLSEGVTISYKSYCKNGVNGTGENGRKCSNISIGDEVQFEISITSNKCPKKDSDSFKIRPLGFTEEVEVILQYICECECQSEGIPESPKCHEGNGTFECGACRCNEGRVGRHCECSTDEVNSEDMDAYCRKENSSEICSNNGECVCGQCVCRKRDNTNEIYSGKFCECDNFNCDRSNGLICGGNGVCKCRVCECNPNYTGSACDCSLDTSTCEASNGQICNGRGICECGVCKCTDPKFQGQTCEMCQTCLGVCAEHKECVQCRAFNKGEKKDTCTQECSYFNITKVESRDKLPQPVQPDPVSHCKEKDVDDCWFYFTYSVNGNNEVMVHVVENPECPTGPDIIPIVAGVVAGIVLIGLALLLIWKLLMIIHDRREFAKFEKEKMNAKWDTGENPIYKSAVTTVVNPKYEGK
Protocol: Assay of Antagonistic Activity to VCAM-1/α4β1 Integrin Binding Under the Existence of Blood Serum
The capacity of a test substance antagonistic to the binding of cell strain of human T cells, Jurkat (ATCC TIB-152), known to express integrin α4β1, to VCAM-1 was determined.
Fifty μl/well of a solution (500 ng/ml) of recombinant human VCAM-1/Fc (R & D systems) diluted with buffer A (0.1 M NaHCO3, pH 9.6) was added to a 96-well microtiter plate (Nunc Maxisorp). After the incubation at 4° C. overnight and washing once with PBS, a buffer (buffer B) obtained by diluting Block Ace (Snow Brand Milk Products Co., Ltd.) with PBS to ½ concentration was added in an amount of 150 μl/well. After the incubation at room temperature for 2 hours, buffer B was removed and the plate was washed with PBS once.
Jurkat cells were washed with Dulbecco modified Eagle medium (SIGMA, hereinafter referred to as “DMEM”) once. Then, the cells were again suspended in a binding buffer (DMEM containing 20 mM HEPES, 0.1% BSA, 2 mM MnCl2 and 50% human blood serum (Sigma)) to become 1×10^6 cells/mL.
Sixty μl of a test substance of various concentrations obtained by the dilution with the binding buffer was added to a round-bottom, 96-well plate (IWAKI). Immediately thereafter, 60 μl of the Jurkat cells (1×10^6 cells/ml) were added thereto and shaken on a plate shaker (IKA-Labortechnik, IKA-SCHUTTLER MTS-4) at 1000 rpm for 10 seconds. In 120 μL of the cell suspension to which the test substance was added, each 100 μL thereof was transferred on the VCAM-1/Fc-coated plate and incubated in dark place at room temperature for 60 minutes. After the shaking on the plate shaker at 1000 rpm for 30 seconds, the solution was immediately removed. Then, the unbound cells were removed by washing them with PBS once. A buffer C (PBS containing 0.82% Triton X-100) was added to the plate in an amount of 70 μL/well. After the shaking on the plate shaker at 1000 rpm for 5 minutes, the bound Jurkat cells were lysed. After centrifuging the cells on a plate centrifuge (SIGMA 4-15C) at room temperature at 2500 rpm for 5 minutes, 50 μL of supernatant thereof was transferred to a 96-well microtiter plate (Nunc Maxisorp). Each 50 μL of Substrate Buffer (Promega, CytoTox 96 Non-Radioactive Cytotoxicity Assay) was added thereto, shaken on a plate shaker at 1000 rpm for 10 seconds and reacted in dark place at room temperature for 30 minutes. Then, each 50 μL of Stop Solution (Promega, CytoTox 96 Non-Radioactive Cytotoxicity Assay) was added thereto and shaken on a plate shaker at 1000 rpm for 10 seconds. […] The absorbance thus obtained detects an activity of lactate dehydrogenase (LDH) dissolved in the supernatant of each well. Namely, the absorbance is proportional to the number of remaining Jurkat cells on the plate via the binding to VCAM-1. The test was conducted in duplicate and the binding rate of each test substance in various concentrations was determined while the absorbance of the test substance-free well was determined to be 100% and the absorbance of the Jurkat-cell-free well was determined to be 0%. The concentration for the 50% inhibition of binding, IC50, was calculated.

Row | Structure (SMILES) | clearance [1] | IC50 [2]
1 | CCNCc1ccc2c(c1)c(=O)n(-c1ccc(C[C@H](NC(=O)c3c(Cl)cccc3Cl)C(=O)O)cc1)c(=O)n2C [Example 54] | 4.5 mL/min/kg | 0.0145 µM
2 | CNCc1ccc2c(c1)c(=O)n(-c1ccc(C[C@H](NC(=O)c3c(Cl)cccc3Cl)C(=O)O)cc1)c(=O)n2C [Example 99] | 3.83 mL/min/kg | 0.0112 µM
3 | Cn1c(=O)n(-c2ccc(C[C@H](NC(=O)c3c(Cl)cccc3Cl)C(=O)O)cc2)c(=O)c2ccc(N3CCCC3)cc21.O=C(O)C(F)(F)F [Example 40, N-(2,6-dichlorobenzoyl)-4-[1-methyl-7-(pyrrolidine-1-yl)-2,4-quinazoline-dione-3-yl]-L-phenylalanine trifluoroacetate] | 3.17 mL/min/kg | –
4 | CSc1ccc2c(c1)c(=O)n(-c1ccc(C[C@H](NC(=O)c3c(Cl)cccc3Cl)C(=O)O)cc1)c(=O)n2C [Example 37, N-(2,6-dichlorobenzoyl)-4-[1-methyl-6-(methylthio)-2,4-quinazoline-dione-3-yl]-L-phenylalanine] | 5.5 mL/min/kg | –
5 | Cn1c(=O)n(-c2ccc(C[C@H](NC(=O)c3c(Cl)cccc3Cl)C(=O)O)cc2)c(=O)c2cc(-n3ccnc3N)ccc21 [Example 59] | 5.33 mL/min/kg | –
6 | CN(C)Cc1ccc2c(=O)n(-c3ccc(C[C@H](NC(=O)c4c(Cl)cccc4Cl)C(=O)O)cc3)c(=O)n(C)c2c1.O=C(O)C(F)(F)F [Example 34, N-(2,6-dichlorobenzoyl)-4-[7-[(dimethylamino)methyl]-1-methyl-2,4-quinazoline-dione-3-yl]-L-phenylalanine Trifluoroacetate] | 5.17 mL/min/kg | 0.0105 µM
